Experimental data: ChEMBL document CHEMBL1132648, “Butenolide endothelin antagonists with improved aqueous solubility” (J Med Chem, 1999)

settings: buffer, pH 7.4

Row | Aqueous solubility [ng/mL] | SMILES
1 | > 250 | COc1ccc(C(=O)/C(Cc2cc(OC)c(OC)c(OCCCC(=O)O)c2)=C(\C(=O)[O-])c2ccc3c(c2)OCO3)cc1.[Na+]
2 | > 125 | COc1ccc(C(=O)/C(Cc2cc(OC)c(OC)c(OC)c2)=C(\C(=O)[O-])c2ccc3c(c2)OCO3)cc1.[Na+] [PD-156707 SODIUM]
3 | < 0.01 | COc1ccc(C2(O)OC(=O)C(c3ccc4c(c3)OCO4)=C2Cc2cc(OC)c(OC)c(OC)c2)cc1 (stereo not drawn) [PD-156707]
